This note sets out measurements from PubChem BioAssay (NCI).

Molecules are shown by their SMILES.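 Following 48 hours of exposure in 96-well plates, responses at five concentrations were used to interpolate endpoints linearly. Here, GI50 denotes the concentration required for 50% inhibition of growth. TGI: concentration producing complete growth inhibition.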

Some test systems named below: CAKI-1 renal; CCRF-CEM leukemia; HCT-15 colon; HOP-92 NSCLC; K-562 leukemia; NCI-H460 lung; OVCAR-5 ovarian; SF-295 CNS; SK-MEL-5 melanoma; U251 CNS.
Holding throughout (experiment): NCI-60 cell line screen, 48 h

Turning to `CCN(CC)CCOc1ccc(CCc2cc(OC)c(OC)c(OC)c2)cc1`, the TGI with CAKI-1 renal is > 100 µM; with CCRF-CEM leukemia, > 100 µM; with HCT-15 colon it was > 100 µM; in the assay with HOP-92 NSCLC it was 82.6 µM; with K-562 leukemia it was > 100 µM; in the assay on NCI-H460 lung, > 100 µM. The TGI with OVCAR-5 ovarian was 65.3 µM; in the assay on SF-295 CNS, 50.5 µM; in the assay with SK-MEL-5 melanoma, 29.7 µM; in the assay with U251 CNS it was > 100 µM.
In the case of `C[C@]12CCc3sc(NCCc4ccccc4)nc3C1=CC[C@@H]1[C@@H]2CC[C@]2(C)C(=O)CC[C@@H]12`, the GI50 with CAKI-1 renal is 3.13 µM; with CCRF-CEM leukemia it was 2.63 µM; with HCT-15 colon, 1.57 µM; in the assay on HOP-92 NSCLC it was 2.75 µM; in the assay with K-562 leukemia, 2.89 µM; in the assay with NCI-H460 lung, 4.47 µM. For the same molecule, the GI50 with OVCAR-5 ovarian is 4.44 µM; with SF-295 CNS, 18.9 µM; in the assay on SK-MEL-5 melanoma it was 4.57 µM; in the assay on U251 CNS, 4.97 µM. The TGI in the assay on CAKI-1 renal was 11.1 µM; in the assay with CCRF-CEM leukemia, 40.4 µM; with HCT-15 colon it was 4.49 µM; in the assay with HOP-92 NSCLC, 9.1 µM; in the assay with K-562 leukemia it was > 100 µM; with NCI-H460 lung, > 100 µM. Further, the TGI with OVCAR-5 ovarian was 65.9 µM; in the assay with SF-295 CNS, > 100 µM; in the assay with SK-MEL-5 melanoma, 52.7 µM; with U251 CNS, > 100 µM.
Consider `Cc1cc(O)c(C2=NN(c3ccc(S(N)(=O)=O)cc3)C(c3ccccc3Cl)C2)cc1Cl` (stereo not given), for which the GI50 is 1.78 µM in the assay on CAKI-1 renal; 4.81 µM in the assay on CCRF-CEM leukemia; 3.69 µM in the assay on HCT-15 colon; 1.94 µM in the assay on HOP-92 NSCLC; 3.26 µM in the assay with K-562 leukemia; 2.16 µM with NCI-H460 lung. Also, the GI50 in the assay on OVCAR-5 ovarian was 1.74 µM; with SF-295 CNS, 1.59 µM; with SK-MEL-5 melanoma, 3.85 µM; with U251 CNS, 2.25 µM. Also, the TGI in the assay with CAKI-1 renal was 3.99 µM; with CCRF-CEM leukemia, > 100 µM; with HCT-15 colon, 16.6 µM; in the assay on HOP-92 NSCLC, 6.32 µM; in the assay with K-562 leukemia, > 100 µM; in the assay on NCI-H460 lung, 4.21 µM. Besides, the TGI in the assay with OVCAR-5 ovarian came out at 3.3 µM; in the assay with SF-295 CNS, 3.18 µM; with SK-MEL-5 melanoma, 12.3 µM; with U251 CNS, 5.02 µM.
With `O=C1C2C3C=C4c5ccccc5N(c5ccccc5)C4(C2C(=O)N1c1ccc(Cl)cc1)[C@H]1C(=O)N(c2ccc(Cl)cc2)C(=O)[C@@H]31` (stereo not given in full), the TGI in the assay on CAKI-1 renal is 76.3 µM; in the assay with CCRF-CEM leukemia, > 100 µM; in the assay on HCT-15 colon, > 100 µM; with HOP-92 NSCLC, > 100 µM; in the assay on K-562 leukemia it was > 100 µM; with NCI-H460 lung it was > 100 µM. Moreover, the TGI with OVCAR-5 ovarian, with SF-295 CNS, with SK-MEL-5 melanoma and in the assay on U251 CNS was > 100 µM throughout.
As for `O=C(Nc1ccncc1)C(=O)c1cn(Cc2ccc(Cl)cc2)c2ccccc12`, the GI50 with CAKI-1 renal is 0.0355 µM; in the assay with CCRF-CEM leukemia it was 0.0331 µM; in the assay with HCT-15 colon, 0.0408 µM; with HOP-92 NSCLC it was 0.0489 µM; in the assay on K-562 leukemia, 0.0265 µM; with NCI-H460 lung it was 0.0585 µM. Moreover, the GI50 was 0.223 µM with OVCAR-5 ovarian, 0.0217 µM in the assay with SF-295 CNS, 0.0309 µM with SK-MEL-5 melanoma and 0.0472 µM with U251 CNS. The TGI in the assay on CAKI-1 renal was > 100 µM; in the assay with CCRF-CEM leukemia, > 100 µM; with HCT-15 colon it was > 100 µM; in the assay with HOP-92 NSCLC, > 75.1 µM; with K-562 leukemia, 34.8 µM; in the assay with NCI-H460 lung it was > 100 µM. Besides, the TGI was > 100 µM in the assay on OVCAR-5 ovarian, 0.0803 µM in the assay on SF-295 CNS, > 35 µM in the assay with SK-MEL-5 melanoma and > 100 µM in the assay with U251 CNS.
Turning to `c1csc(-c2cn3nc(-c4c[nH]c5ccccc45)sc3n2)c1`, the GI50 is 0.997 µM in the assay on CAKI-1 renal; 2.19 µM in the assay on CCRF-CEM leukemia; 0.488 µM with HCT-15 colon; 5.46 µM in the assay on HOP-92 NSCLC; 0.382 µM in the assay with K-562 leukemia; 0.574 µM with NCI-H460 lung. Moreover, the GI50 in the assay with OVCAR-5 ovarian was 4.27 µM; with SF-295 CNS, 1.74 µM; in the assay with SK-MEL-5 melanoma it was 0.714 µM; in the assay on U251 CNS, 1.21 µM. The TGI was > 100 µM in the assay with CAKI-1 renal; 27.2 µM in the assay on CCRF-CEM leukemia; 15.6 µM in the assay with HCT-15 colon; > 100 µM in the assay on HOP-92 NSCLC; 39.9 µM with K-562 leukemia; > 100 µM in the assay on NCI-H460 lung. The TGI came out at 76.4 µM with OVCAR-5 ovarian, 6.44 µM in the assay on SF-295 CNS, 15.1 µM with SK-MEL-5 melanoma and 17 µM with U251 CNS.
As to `CC1OC(n2c3ccccc3c3c4c(c5c6ccccc6[nH]c5c32)C(=O)N(CCN[C@@H]2CCC[C@H]2N)C4=O)CC(O)C1O` (stereo not given in full), the GI50 with CAKI-1 renal was 6.24 µM; in the assay on CCRF-CEM leukemia, 1.25 µM; in the assay with HCT-15 colon it was 5.88 µM; in the assay with HOP-92 NSCLC it was 2.31 µM; in the assay on K-562 leukemia it was 0.85 µM; with NCI-H460 lung it was 0.744 µM. In addition, the GI50 is 3.66 µM with OVCAR-5 ovarian, 1.74 µM with SF-295 CNS, 1.22 µM with SK-MEL-5 melanoma and 1.05 µM with U251 CNS. Moreover, the TGI is 12.9 µM with CAKI-1 renal; 6.27 µM in the assay with CCRF-CEM leukemia; 12.6 µM in the assay with HCT-15 colon; 9.06 µM in the assay with HOP-92 NSCLC; 2.76 µM in the assay with K-562 leukemia; 1.57 µM in the assay with NCI-H460 lung. Besides, the TGI with OVCAR-5 ovarian is 11.6 µM; in the assay on SF-295 CNS, 7.04 µM; in the assay with SK-MEL-5 melanoma, 3.68 µM; in the assay with U251 CNS it was 5.74 µM.
Take `O=C(N/C(=C/c1ccc(Cl)cc1Cl)c1nc2ccccc2s1)c1ccccc1`: the TGI in the assay on CAKI-1 renal is 30 µM; with CCRF-CEM leukemia it was > 100 µM; in the assay with HCT-15 colon, 13.3 µM; in the assay with HOP-92 NSCLC, > 100 µM; with K-562 leukemia, > 100 µM; in the assay on NCI-H460 lung it was 52.2 µM. For the same molecule, the TGI with OVCAR-5 ovarian was 32 µM; in the assay on SF-295 CNS, 26.5 µM; in the assay with SK-MEL-5 melanoma, 26.4 µM; in the assay on U251 CNS, 9.05 µM.
